Test results as given in patent US9540647B2, “Methods and compositions for the treatment of cancer” (University of South Alabama, priority 2010, dated 2017).
“Also recorded” adds a separate entry of the source.

How the values were obtained:
[1] = test system: ERCC1, XPD, XRCC1; assay: ERCC1, XPD and XRCC1 mRNA levels in A2780-CP70 cells (semi-quantitative PCR); format: cell-based, human; conditions: single agent at levels associated with 50% cell killing; 6-72 hr
[2] = test system: SHH and IHH; assay: SHH and IHH protein expression in A2780 and A2780-CP70 cells (Western blot); format: cell-based, human; conditions: cyclopamine
[3] = test system: pancreatic cancer; conditions: blockade of Hedgehog signaling, inhibiting EMT; cited from earlier work
[4] = test system: OPN promoter; assay: OPN promoter reporter activity in hFOB cells; format: cell-based, human
Experimental: (§1) Empty pGL3 vector was used as control. […] Readings were normalized to total protein content. Each parameter was studied in triplicate and the experiment repeated at least 3 times. The data are represented as percent luciferase activity, which was derived as a percent of the relative light units in treated groups compared with the untreated groups.
(§2) Empty pGL3 vector was used as control. Different concentrations of SHH ligand were added to the well the next day. Cells were lysed in Reporter Lysis buffer (Promega) 24 hrs post addition of SHH and both β-galactosidase assay and luciferase assays were done following manufacturer's protocol. Readings were normalized to β-galactosidase. Each parameter was studied in triplicate and the experiment repeated at least 3 times.

[5] = test system: OPN promoter; assay: OPN promoter reporter activity in MC3T3-E1 pre-osteoblastic cells; format: cell-based, murine
Experimental: as §1, §2

[6] = test system: MC3T3-E1 pre-osteoblast cells; assay: Osteoblast differentiation and mineralization (ALP, Alizarin Red S, BSP, osteocalcin); format: cell-based, murine
Experimental: The procedure for differentiation of osteoblasts was standardized. MC3T3-E1 cells were cultured in the presence of ascorbic acid and β-glycerophosphate. Mineralization was examined by Alizarin RedS staining (Ueno, A., et al. (2001). Matrix Biol 20, 347-355; Lee, Y. K., et al. (2004). J Biomed Mater Res A 69, 188-195; Duarte, W. R., et al. (2003). S100A4: a novel negative regulator of mineralization and osteoblast differentiation. J Bone Miner Res 18, 493-501). Referring to FIG. 13 and FIG. 14, differentiation was evident by intense red staining in presence of differentiation medium and in differentiation medium containing SHH compared to the control, growth medium. This was also evident in the intensity of absorbance and in the numbers of mineralized nodules formed (counted under the microscope) (FIG. 15).
Induction of osteoblastic and osteoclastic differentiation—In order to test the effect of conditioned medium from the tumor cells on osteoblast differentiation, a double-strength differentiation medium (DM) was formulated for MC3T3 E1 Sc-14 cells. It comprised αMEM, 20% FBS, 50 μg/ml ascorbic acid and 20 mM β-glycerophosphate. Conditioned media and the double-strength DM were mixed in a 1:1 ratio. 1×DM was used as control. Similarly a double-strength differentiation medium was formulated for RAW 264.7 cell lines. It consisted of 20% FBS, 50 ng/ml of RANKL and 20 ng/ml of M-CSF added to the growth medium. Conditioned media from the tumor cells was mixed 1:1 with the double-strength DM. 1×DM was used as control. Osteoblast differentiation was assessed by alkaline phosphatase (ALP) activity assay in the perspective of total phosphatase. The functional assessment of osteoblast mineralization was quantified by staining with Alizarin Red S and scoring the number of mineralized nodules.
Quantitative RT-PCR (qRT-PCR)—cDNA was generated using High Capacity Reverse Transcriptase Kit (Applied Biosystems, Foster City, Calif.). Real time PCR was performed using a BioRad iQ5 Real-Time Detection system (Bio-Rad, Hercules, Calif.). All reactions were done in triplicate. OPN transcript levels were normalized to GAPDH levels (dCT) which was used to calculate changes in OPN expression (2-ddCT). […] The primers used included Sppl (OPN) (Mm 00436767_m1); Bglap (osteocalcin) (Mm 01741771_g1); IBSP (Mm 00492555_m1); PTHrP (Mm 00433057_m1); RANKL (Mm 00441906_m1); GAPDH (Mm 99999915_g1).

Row | Molecule | mRNAs for ERCC1, XPD, or XRCC1 [1] | IHH protein levels ([2]; 24 hr) | SHH protein levels ([2]; 24 hr) | IHH protein levels ([2]; 48 hr and 72 hr) | SHH protein levels ([2]; 48 hr and 72 hr) | pancreatic cancer invasion and metastasis [3] | OPN promoter activity [4] | OPN promoter activity [5] | alkaline phosphatase (ALP) activity, osteoblast differentiation ([6]; DM supplemented with 100 nM recombinant ligand vs DM alone) | mineralized nodules / Alizarin Red staining ([6]; DM with recombinant ligand vs DM alone, 14 days) | expression of BSP ([6]; in presence of SHH, 14 days) | expression of osteocalcin ([6]; in presence of SHH, 14 days)
1 | CC1=C2C[C@H]3[C@@H](CC=C4C[C@@H](O)CC[C@@]43C)[C@@H]2CC[C@]12O[C@@H]1C[C@H](C)CN[C@H]1[C@H]2C [cyclopamine] | no increase | reduced | reduced | rebounded | rebounded | suppressed pancreatic cancer invasion and metastasis |  |  |  |  |  | 
2 | SHH: recombinant Sonic Hedgehog ligand (R & D Systems) |  |  |  |  |  |  | activates the OPN promoter; also recorded: upregulation in OPN promoter activity | activate OPN promoter; also recorded: upregulation in OPN promoter activity | promotes differentiation; also recorded: significantly greater | promote differentiation; also recorded: significantly greater number of mineralized nodules | significantly elevated | significantly elevated
